The record followed here is article PMC8354611, “Orientin mediates protection against MRSA-induced pneumonia by inhibiting Sortase A” (Virulence, 2021).

Assay [1] concerns S. aureus USA300. Put plainly: Growth curve assay. Format: cell-based. The conditions noted are these: 200 µM orientin, growth curve in BHI. The method, then: (§1) The broth microdilution method was performed to determine the MIC of orientin for S. aureus USA300 as previously described. Briefly, orientin was diluted two-fold serially in a 96-well plate at concentrations ranging from 2 to 1024 µg/mL, followed by inoculation with S. aureus USA300 (10^6 CFU/mL) and incubation at 37°C for 16 h. After incubation, the absorbance (OD) value at 600 nm was measured. For the growth curve experiment, the overnight bacterial culture was diluted in fresh BHI (1:100) with various concentrations of orientin (0–200 µM). S. aureus ΔsrtA was used as the control group. Each sample was cultured at 37°C, and the OD600 was measured at 1 h intervals.

The next assay addresses T1, WT-SrtA (Staphylococcus aureus, UniProt Q2FV99).
T1 construct: 6xHis (N); made in house; host or cells: E. coli BL21(DE3), pET28a
In words: Fluorescence quenching assay, WT-SrtA. In kind it is binding, S. aureus USA300. Here is the method: (§2) The sequence of srtA from S. aureus USA300 was retrieved from the GenBank database. The srtA gene lacking the transmembrane domain (N1–59) was amplified using PCR. The PCR product was then digested and cloned in the BamHI/XhoI restriction sites of the pET28a vector, yielding pET28a-srtA. The site-directed mutagenesis of T93A-SrtA, E105A-SrtA, and C184A-SrtA was conducted using pET28a-srtA using a Multi-Site Mutagenesis Kit (Transgen, Beijing, China). The expression vector was then transformed into the BL21(DE3) expression host, and the bacteria were cultured in BHI medium supplemented with kanamycin (50 µg/mL) at 37°C. In addition, isopropyl-β-D-thiogalactoside (1 mM) was used to induce recombinant SrtA for 4 h at 16°C. Whole-cell lysates of bacteria were prepared through ultrasonic crushing. Recombinant SrtAΔN59 or its mutants were purified using the 6 × His/Ni-NTA system refer to a previous study.
(§3) The binding constants (KA) of orientin to SrtA were determined using the fluorescence quenching assay. The spectra were recorded in the wavelength interval of 280–400 nm. The protocols used to perform the measurements have previously been described [[31–33]].

A further assay relates to S. aureus. Put plainly: Pneumonia model experiment. The conditions noted are these: mice. In kind it is in vivo, C57BL/6 J mice. The method, then: The pneumonia model was induced as previously described in 7-week-old female C57BL/6 J mice. For survival experiments, a group of 10 mice was infected with 30 µL of S. aureus culture (2 × 10^8 CFUs) via the intranasal route. An hour after infection, the mice were intraperitoneally injected with orientin (100 mg/kg) at intervals of 12 h. Similarly, mice in the control group were injected with sterile PBS containing 0.5% DMSO. The mice were monitored every 12 h for 96 h after administration to calculate the survival rate. For estimation of the bacterial count in the lung tissue and histopathological analysis, the mice were infected with 30 µL (1 × 10^8 CFUs) of S. aureus cultures, and the infection was allowed to progress for 2 d. The mice were then sacrificed, and the lungs were collected, weighed, and homogenized. Then, appropriate dilutions were plated on BHI-agar plates until a single colony appeared and counted. The lung tissues of mice in each group were aseptically separated and fixed in 10% formalin. The lung tissue sections were observed under an optical microscope after conventional hematoxylin and eosin (H&E) staining.

Assay [2] relates to Staphylococcal protein A (SpA) anchoring to the cell wall. In words: FITC-IgG binding to Staphylococcal protein A (SpA). In kind it is cell-based, S. aureus. The conditions noted are these: 200 µM orientin, compared to the WT group. Here is the method:
Overnight culture of S. aureus and S. aureus ΔsrtA was diluted 1:1000 in TSB medium, and different concentrations of orientin (0–200 µM) were added to the culture with shaking at 37°C until the logarithmic growth phase. The bacteria collected by centrifugation were washed thrice with PBS, after which the bacterial precipitate was resuspended with 50 µL of 1:200 diluted FITC-labeled rabbit IgG (Solarbio, Beijing, China). Then, the bacterial precipitate was incubated at ambient temperature for 30 min, and the harvested bacteria were rinsed thrice by PBS. Then, the bacteria were resuspended in 100 µL PBS and added to a black 96-well plate. The Multimode Microplate Reader (Tecan, Spark 20 M) was used to measure the fluorescence intensity at 490 nm for excitation and 520 nm for emission.

In assay [3] the target is T2, SrtA (Staphylococcus aureus, UniProt Q2FV99).
T2 construct: 6xHis (N); made in house; host or cells: E. coli BL21(DE3), pET28a
In words: FRET assay of SrtA inhibition (cleavage of Abz-LPATG-Dap(Dnp)-NH2). In kind it is biochemical, S. aureus USA300. The method, then:
Fluorescence resonance energy transfer (FRET) was detected the activity of orientin against SrtA, as previously described. The reaction mixture (300 µL) consisted of the reaction buffer (50 mM Tris-HCl, 5 mM CaCl2, 150 mM NaCl, pH 7.5), 4 µM purified SrtA, and various concentrations of orientin (0–200 µM). The sample was incubated at 37°C for 1 h, followed by the addition of substrate peptide (10 μM). After incubation for another hour at 37°C, the fluorescence intensity value was detected at the excitation and emission wavelengths of 350 nm and 495 nm, respectively.

Assay [4] relates to S. aureus USA300. In words: Adherence of S. aureus to immobilized fibrinogen. Format: cell-based. The note with it: WT S. aureus treated with 200 µM orientin. Here is the method: The S. aureus USA300 was grown in BHI broth for 12 h and then diluted (1:100) in fresh BHI containing different concentrations of orientin, then continued to culture until an OD600 reached 0.5. The ∆srtA mutant was cultured under the same conditions as a positive control. Subsequently, the bacterial culture was added to a 96-well plate previously coated with bovine fibrinogen (20 µg/mL). Then, the sample was incubated for 2 h at 37°C, and 25% (v/v) formaldehyde was added to fix the adherent bacterial cells for 30 min after discarding the suspension. The formaldehyde was removed, and the plate was washed twice with PBS, following which, crystal violet was added to stain the cells for 20 min. The wells were gently washed with PBS and dried, and the OD value at 570 nm was measured.

The next assay concerns the target T3, E105A (Staphylococcus aureus, UniProt Q2FV99, E105A).
T3 construct: 6xHis (N); made in house; host or cells: E. coli BL21(DE3), pET28a
In words: Fluorescence quenching assay, SrtA mutant E105A. Format: binding, S. aureus USA300. Here is the method:
as §2, §3

Assay [5] deals with S. aureus internalization into A549 cells. In words: Invasion assay of S. aureus into A549 cells. Format: cell-based. The conditions noted are these: S. aureus treated with 100 µM orientin, vs untreated WT, P < 0.001. Here is the method:
The A549 cells were routinely sub-cultured at 37°C with 5% CO2. Cells in the logarithmic growth phase were seeded in a 24-well plate at a density of 2.5 × 10^5 per well and cultured for 20 h. S. aureus was mixed with orientin ranging from 0 to 100 µM and cultured at 37°C until an OD600 of 1.0 was reached. Then, the cell culture medium was discarded, and the cells were resuspended in DMEM medium. After that, a bacterial suspension containing 2 × 10^7 CFU/mL was added to each well. After incubation for 2 h, 300 µg/mL gentamicin was added to stop the invasion. Then, the cells were lysed after washing with sterile PBS and spread on BHI agar plates to calculate the number of colonies in each sample.

The next assay relates to expression of SrtA. In words: Western blot analysis of SrtA expression. In kind it is cell-based, S. aureus. The note with it: orientin 0, 25, 50, 100 or 200 µM. Here is the method:
An equal amount of protein extract was separated using SDS-PAGE, followed by transfer to the polyvinylidene difluoride (PVDF) membrane (GE Healthcare, UK). The membrane was incubated in 5% BSA overnight at 4°C. After washing with TBST (TBS + 1‰ Tween 20), the membrane was incubated with rabbit anti-SrtA polyclonal antibody (1:3000) at room temperature. After incubation for 2 h, the membrane was washed thrice and incubated with HRP-conjugated goat anti-rabbit IgG (diluted 1:10,000 in TBST) for 2 h. After washing thrice, the membrane was incubated with Super ECL Plus (US EVERBRIGHT, Suzhou, China) and visualized in an ECL detection system (GE Healthcare, UK). The cytoplasmic protein ClpP was treated in the same way as an internal control. Band quantification was performed using the software ImageQuant TL.
Background: In western blotting, separated proteins are transferred to a membrane and probed.

The next assay has as its target T4, C184A (Staphylococcus aureus, UniProt Q2FV99, C184A).
T4 construct: 6xHis (N); made in house; host or cells: E. coli BL21(DE3), pET28a
Put plainly: Fluorescence quenching assay, SrtA mutant C184A. In kind it is binding, S. aureus USA300. The method, then:
as §2, §3

A further assay has as its system D170A. In words: Fluorescence quenching assay, SrtA mutant D170A. Format: binding, S. aureus USA300.
Assay [6] relates to S. aureus USA300. In words: Broth microdilution MIC. The conditions noted are these: Staphylococcus aureus, USA300, 16 h. Format: cell-based. Here is the method: as §1
Assay [7] addresses T2, SrtA. In words: Reversible inhibition assay of SrtA. The conditions noted are these: SrtA incubated with 10-fold IC50 of orientin, then diluted. Format: biochemical, S. aureus USA300. Here is the method: The 10-fold IC50 concentration of orientin was incubated with 100 µL of SrtA (150 µM) for 1 h at 37°C, followed by the addition of 9.9 mL reaction buffer. Then, 190 µL of the mixture was added to each well, and substrate peptide (10 μL) was added until a final concentration of 10 μM was achieved. A multifunctional microplate reader was used to record the fluorescence intensity at 350 nm for excitation and 495 nm for emission.

The next assay has as its system S. aureus biofilm. In words: Crystal violet biofilm assay. Format: cell-based. The note with it: 200 µM orientin, compared to the WT group (untreated S. aureus). The method, then: After overnight culturing, S. aureus was diluted using fresh BHI by 1:100, and different concentrations of orientin ranging from 0 to 200 μM were added with shaking at 37°C to OD600 of 0.6. The bacterial culture (5 µL) was then added to BHI broth containing 1% glucose to a final volume of 200 µL and continue cultured for 18 h. Then, the medium was discarded carefully and washed three times with PBS. Then, the biofilms were stained with a 0.1% (w/v) crystal violet solution for 20 min at ambient temperature conditions. The crystal violet solution was discarded, and the wells were washed thrice with sterile PBS. After drying the plates, 95% ethanol was added into each well, and the absorbance at 570 nm was measured.

Values joined by “and” are separate entries in the source; they are usually repeats but may differ in a detail not shown here. Identical values can stand only once. Marks after values point to notes of the source that are not given here.

The term Kd denotes a measure of binding affinity in units of concentration. The term IC50 denotes the concentration that inhibits the measured activity by half. Read a high IC50 as weaker potency. One may read the MIC as the lowest concentration that inhibits growth of the organism. Read a high MIC as a less susceptible organism. As to `O=c1cc(-c2ccc(O)c(O)c2)oc2c([C@@H]3O[C@H](CO)[C@@H](O)[C@H](O)[C@H]3O)c(O)cc(O)c12` [orientin], the “effect on S. aureus growth” value with S. aureus USA300 [1] is reported as “little inhibitory effect”. In addition, the Kd is 14 µM at WT-SrtA, 23.5 µM on E105A and 32.1 µM on C184A. In the assay with S. aureus (100 mg/kg orientin, 2 d after infection, vs untreated group, P < 0.001), the “number of viable S. aureus in the lung tissue” value is “significantly reduced”. For the same compound, in the assay with S. aureus (100 mg/kg orientin, H&E staining), the lung histopathology result is listed as “inflammatory symptoms were significantly reduced”. The same compound showed a survival rate in the assay with S. aureus (lethal dose of S. aureus intranasal, 100 mg/kg orientin intraperitoneally at intervals of 12 h, within 72 h) of 60%. In assay [2], the “relative activity (fluorescence of FITC-IgG bound to SpA)” value is given as 37.32 ± 1.84%. At SrtA [3], this compound gave an IC50 of 50.4 ± 0.51 µM. Further, the “adhesion of S. aureus to fibrinogen” value in the assay with S. aureus USA300 [4] came to 33.10 ± 1.41%. Moreover, in assay [5], the “ability of S. aureus to invade A549 cells” value is “decreased significantly”. Also, the “effect on the expression of SrtA” value with expression of SrtA is listed as “not to affect the expression of SrtA”. Further, the KA in the assay with D170A is listed as 5.37* 1 × 10^4 l/mol. In the assay with S. aureus USA300 [6], the MIC is greater than 512 µg/mL. Further, the “reversibility of SrtA inhibition” value at SrtA [7] was “reversible inhibitor”. Also, the “activity of SrtA recovered (relative activity)” value on SrtA [7] (untreated SrtA = 100% activity) was 84.77 ± 1.28% and 84.77%. In addition, the biofilm biomass in the assay on S. aureus biofilm stood at 31.90 ± 0.25%.
